Measurements taken from PubChem BioAssay AID1963427 (Molecular Pharmacology Branch, DTP, NCI, 2024).

Tested on: 317291-083-R-J1-PDC complex spheroid growth
Assay: Anticancer human tumor 317291-083-R-J1-PDC patient-derived soft tissue sarcoma cell line growth inhibition [Asc]
Details: for IC50: curve of first compound; for viability, T/C: stronger effect = lower value; active = viability on the fitted dose curve at most 10% of control; inactive = the rest
Outline: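 Tumor cells were grown as complex spheroids with human endothelial cells (HUVEC) and human mesenchymal stem cells as stroma. Agents were tested alone and in combination, in half-log steps down from the clinical Cmax, or from 10 microM where Cmax was unknown.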

[1] = second compound 0.00949 µM, first compound 0.0316 µM
[2] = second compound 0.00949 µM, first compound 0.1 µM
[3] = second compound 0.00949 µM, first compound 0.316 µM
[4] = second compound 0.00949 µM, first compound 1 µM
[5] = second compound 0.03 µM, first compound 0.0316 µM
[6] = second compound 0.03 µM, first compound 0.1 µM
[7] = second compound 0.03 µM, first compound 0.316 µM
[8] = second compound 0.03 µM, first compound 1 µM
[9] = second compound 0.0949 µM, first compound 0.0316 µM
[10] = second compound 0.0949 µM, first compound 0.1 µM
[11] = second compound 0.0949 µM, first compound 0.316 µM
[12] = second compound 0.0949 µM, first compound 1 µM
[13] = second compound 0.3 µM, first compound 0.0316 µM
[14] = second compound 0.3 µM, first compound 0.1 µM
[15] = second compound 0.3 µM, first compound 0.316 µM
[16] = second compound 0.3 µM, first compound 1 µM
[17] = second compound 0.949 µM, first compound 0.0316 µM
[18] = second compound 0.949 µM, first compound 0.1 µM
[19] = second compound 0.949 µM, first compound 0.316 µM
[20] = second compound 0.949 µM, first compound 1 µM
[21] = second compound 3 µM, first compound 0.0316 µM
[22] = second compound 3 µM, first compound 0.1 µM
[23] = second compound 3 µM, first compound 0.316 µM
[24] = second compound 3 µM, first compound 1 µM
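Note: compound exposure lasted seven days after spheroids formed for three days.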
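Throughout, for viability, T/C: 100% = DMSO vehicle control wells.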

C#Cc1c(F)ccc2cc(O)cc(-c3ncc4c(N5CC6CCC(C5)N6)nc(OCC56CCCN5CC(F)C6)nc4c3F)c12 (centres undefined) + CCN1C(C(=O)NC23CCC(C(=O)O)(CC2)CC3)C(c2cccc(Cl)c2F)C2(C(=O)Nc3cc(Cl)ccc32)C12CCCCC2
inactive: viability, T/C [1] 129% | viability, T/C [2] 78.8% | viability, T/C [3] 125% | viability, T/C [4] 153% | viability, T/C (second compound 0.00949 µM, first compound 3.16 µM) 113% | viability, T/C (second compound 0.00949 µM, first compound 10 µM) 66.1% | viability, T/C [5] 106% | viability, T/C [6] 98.3% | viability, T/C [7] 106% | viability, T/C [8] 112% | viability, T/C (second compound 0.03 µM, first compound 3.16 µM) 78.2% | viability, T/C (second compound 0.03 µM, first compound 10 µM) 80.2% | viability, T/C [9] 108% | viability, T/C [10] 101% | viability, T/C [11] 104% | viability, T/C [12] 99.6% | viability, T/C (second compound 0.0949 µM, first compound 3.16 µM) 118% | viability, T/C (second compound 0.0949 µM, first compound 10 µM) 79.4% | viability, T/C [13] 101% | viability, T/C [14] 97.6% | viability, T/C [15] 120% | viability, T/C [16] 126% | viability, T/C (second compound 0.3 µM, first compound 3.16 µM) 101% | viability, T/C (second compound 0.3 µM, first compound 10 µM) 69.9% | viability, T/C [17] 104% | viability, T/C [18] 108% | viability, T/C [19] 90.2% | viability, T/C [20] 98.7% | viability, T/C (second compound 0.949 µM, first compound 3.16 µM) 100% | viability, T/C (second compound 0.949 µM, first compound 10 µM) 78.4% | viability, T/C [21] 72.3% | viability, T/C [22] 74.1% | viability, T/C [23] 77.2% | viability, T/C [24] 86.6% | viability, T/C (second compound 3 µM, first compound 3.16 µM) 69.9% | viability, T/C (second compound 3 µM, first compound 10 µM) 53.6%
> 10000 nM: IC50 (second compound 0.00949 µM) | IC50 (second compound 0.03 µM) | IC50 (second compound 0.0949 µM) | IC50 (second compound 0.3 µM) | IC50 (second compound 0.949 µM) | IC50 (second compound 3 µM)

CNC(C)C(=O)NC1CN(S(=O)(=O)c2cccc(S(=O)(=O)N3CCC4CCC(C(=O)NC(c5ccccc5)c5ccccc5)N4C(=O)C(NC(=O)C(C)NC)C3)c2)CCC2CCC(C(=O)NC(c3ccccc3)c3ccccc3)N2C1=O (centres undefined) + CCN1C(C(=O)NC23CCC(C(=O)O)(CC2)CC3)C(c2cccc(Cl)c2F)C2(C(=O)Nc3cc(Cl)ccc32)C12CCCCC2
75.2 nM: IC50 (second compound 3 µM)
313 nM: IC50 (second compound 0.0949 µM)
inactive: viability, T/C (second compound 0.00949 µM, first compound 0.00316 µM) 96.9% | viability, T/C (second compound 0.00949 µM, first compound 0.01 µM) 86% | viability, T/C [1] 71.7% | viability, T/C [2] 61.3% | viability, T/C [3] 49.5% | viability, T/C [4] 32.1% | viability, T/C (second compound 0.03 µM, first compound 0.00316 µM) 81.3% | viability, T/C (second compound 0.03 µM, first compound 0.01 µM) 87.8% | viability, T/C [5] 72.5% | viability, T/C [6] 65.2% | viability, T/C [7] 50.9% | viability, T/C [8] 47.7% | viability, T/C (second compound 0.0949 µM, first compound 0.00316 µM) 108% | viability, T/C (second compound 0.0949 µM, first compound 0.01 µM) 101% | viability, T/C [9] 79.1% | viability, T/C [10] 67.4% | viability, T/C [11] 49.1% | viability, T/C [12] 39.2% | viability, T/C (second compound 0.3 µM, first compound 0.00316 µM) 98.7% | viability, T/C (second compound 0.3 µM, first compound 0.01 µM) 71.4% | viability, T/C [13] 70.9% | viability, T/C [14] 68.7% | viability, T/C [15] 54.5% | viability, T/C [16] 41.1% | viability, T/C (second compound 0.949 µM, first compound 0.00316 µM) 90.1% | viability, T/C (second compound 0.949 µM, first compound 0.01 µM) 66.4% | viability, T/C [17] 64.1% | viability, T/C [18] 62.4% | viability, T/C [19] 38.9% | viability, T/C [20] 63.8% | viability, T/C (second compound 3 µM, first compound 0.00316 µM) 64.4% | viability, T/C (second compound 3 µM, first compound 0.01 µM) 66.1% | viability, T/C [21] 59% | viability, T/C [22] 47.7% | viability, T/C [23] 34.6% | viability, T/C [24] 35.4%
459 nM: IC50 (second compound 0.3 µM)
> 1000 nM: IC50 (second compound 0.949 µM)
253 nM: IC50 (second compound 0.00949 µM)
517 nM: IC50 (second compound 0.03 µM)
